Test system: HBV replication in HepDE19 cells
Assay: Suppression of HBV replication in HepDE19 cells by synthetic gRNA/Cas9 RNPs, one-time transfection (ELISA, real-time PCR, RNAscope)
Format: cell-based, Hepatitis B virus (HBV)
Conditions: Tet-free medium 3 days; for HBV mRNA / HBV RNA level (RNAscope) / cccDNA level / pgRNA level / total HBV DNA level: HepDE19 cells, vs gRNAc; for cccDNA level: one-time transfection; for cccDNA level / pgRNA level / total HBV DNA level: real-time PCR; for HBeAg level / HBsAg level: HepDE19 supernatant, ELISA, vs scrambled gRNAc
Procedure: The HepDE19 cell line is tetracycline-controlled HBV stable cells maintained in the presence of 500 μg/ml G418 and 1 μg/ml tetracycline (Tet). Upon withdrawing Tet from the culture fluid of HepDE19 cells, pgRNA transcription, HBV DNA replication, cccDNA formation, and HBV e antigen (HBeAg) production gradually increase in a time-dependent manner. To induce HBV replication, the cells were cultured in a Tet-free medium for 0-10 days, followed by measuring the expression of HBV antigens, HBV cccDNA, and pgRNA using methods previously described. For cell transfection, HepDE19 cells were cultured in Tet-free medium for 2 days. The gRNA/Cas9 RNPs and Lipofectamine CRISPRMAX reagents were prepared in two separate tubes following the manufacturer's instructions. Briefly, 125 ng gRNA, 500 ng GeneArt Platinum Cas9 nuclease, and 1 μl Cas9 Plus reagents were mixed in one tube, and 1.5 μl Lipofectamine CRISPRMAX reagent was added in a separate tube. The gRNA/Cas9 RNP solution was then transferred to the tube containing the Lipofectamine CRISPRMAX solution. The mixture was vortexed and incubated at 25° C. for 10 min to form the gRNA/Cas9 RNP/Lipofectamine CRISPRMAX complex. Meanwhile, HepDE19 cells were seeded in a 24-well plate at 2.0×10^5 cells per well. The gRNA/Cas9 RNP/Lipofectamine CRISPRMAX complex was then added directly to the cell suspension, and the cells were incubated for 72 h, followed by assessing HBV replication with Tet-free medium as described above.
The levels of HBsAg and HBeAg in the supernatants of cell cultures were determined by ELISA (Cat #KA0286 and NBP2-600029, Novus Biologicals, Littleton, CO) according to the manufacturer's protocol. The optical density of antigen levels was measured at 450 nm using a microplate spectrophotometer. The samples were run in triplicate, and the experiments were repeated at least three times.
Total RNA was extracted from the cell pellets by the RNeasy Mini kit (Cat #74104, QIAGEN, Germantown, MD), and 1 μg RNA was converted to cDNA using the Applied Biosystems High-Capacity cDNA Reverse Transcription Kit (Cat #43-688-14, ThermoFisher, Waltham, MA). Quantitative real-time PCR (real-time-qPCR) was performed using iTaq Universal SYBR Green Supermix (Cat #1725124, Bio-Rad, Hercules, CA). The PCR primers were: HBV mRNA forward, 5′-[…]-3′ (SEQ ID NO: 52), reverse, 5′-[…]-3′ (SEQ ID NO: 53); HBV pgRNA forward 5′-[…]-3′ (SEQ ID NO: 54), reverse 5′-[…]-3′ (SEQ ID NO: 55); and GAPDH forward 5′-[…]-3′ (SEQ ID NO: 56), reverse 5′-[…]-3′ (SEQ ID NO: 57). The gene expression levels were determined by the […] method and values were normalized to GAPDH expression as an internal control.
Total and protein-free HBV DNAs were extracted from whole cell lysate using the Hirt DNA method according to a previously published protocol. For HBV cccDNA analysis, the protein-free DNA was treated with 10 units of T5 exonuclease (NEB) at 37° C. for 30 min, followed by 95° C. for 5 min, and diluted 4-fold with nuclease-free water. Next, the cccDNA was cleaned with a DNA clean and concentrator kit (ZYMO Research, Irvine, CA) and used for PCR. HBV total DNA and cccDNA were analyzed by real-time PCR using a TaqMan PCR assay. The primers and probe used to amplify HBV total DNA were: HBV total DNA forward: 5′-[…]-3′ (SEQ ID NO: 58), reverse 5′-[…]-3′ (SEQ ID NO: 59), and internal probe: 5′-FAM-[…]-TAMRA-3′ (SEQ ID NO: 60). The primers and probe used to amplify HBV cccDNA (Genotype D, subtype ayw) were: forward: 5′-[…]-3′ (SEQ ID NO: 61), reverse 5′-[…]-3′ (SEQ ID NO: 62), and internal probe 5′-FAM-[…]-TAMRA-3′ (SEQ ID NO: 63). The PCR reactions were performed in 20 μl volumes and contained 2 μl DNA. The PCR conditions were: 95° C. for 10 min, followed by 45 cycles of 95° C. for 15 s and 64° C. for 30 s. The DNA levels were determined by the […] method and values were normalized to the control group. […]

GGTCTCCATGCGACGTGCAGNGG [gRNA9]
significant decreases: HBV mRNA / HBV RNA level (RNAscope) | cccDNA level | pgRNA level | total HBV DNA level | HBeAg level | HBsAg level

GTTATCGCTGGATGTGTCTGNGG (guide GUUAUCGCUGGAUGUGUCUGNGG; complexed with Cas9 protein, chemistry not fully specified) [gRNA5, tested as synthetic gRNA/Cas9 RNP]
significant decreases: HBV mRNA / HBV RNA level (RNAscope) | cccDNA level | pgRNA level | total HBV DNA level | HBeAg level | HBsAg level
